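Exposure lasted 48 hours, with cells grown in 96-well plates and compounds tested at five concentrations. Here, GI50 denotes the concentration required for 50% inhibition of growth. TGI: concentration producing complete growth inhibition.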
Tests used:
Experiment in all cases: NCI anticancer screen, dose series, 48 h
[1] = test system: SK-MEL-5 melanoma
[2] = test system: HL-60(TB) leukemia
[3] = test system: HT29 colon
[4] = test system: HCT-116 colon
[5] = test system: MALME-3M melanoma
[6] = test system: SF-268 CNS
[7] = test system: KM12 colon
[8] = test system: MOLT-4 leukemia
[9] = test system: OVCAR-8 ovarian
[10] = test system: K-562 leukemia

CNCc1cccc2c1OCCOCCOCCC(C)S(=O)(=O)c1ccc(cc1)-c1cnc(N)c(n1)C(=O)N2 (stereo not given)
GI50 [1]: 2050 nM | TGI [1]: 4.58 µM | GI50 [2]: 1810 nM | TGI [2]: 3.83 µM | GI50 [3]: 1.44 µM | TGI [3]: 8.99 µM | GI50 [4]: 1180 nM | TGI [4]: 3.35 µM | GI50 [5]: 1.59 µM | TGI [5]: 3.13 µM | GI50 [6]: 1.18 µM | TGI [6]: 3.33 µM | GI50 [7]: 1690 nM | TGI [7]: 6.78 µM | GI50 [8]: 1.3 µM | TGI [8]: 10.3 µM | GI50 [9]: 1780 nM | TGI [9]: 7.9 µM | GI50 [10]: 1500 nM | TGI [10]: 10.4 µM

COc1cccc(C2C(C#N)=C(N)Oc3cc4c(cc32)OCO4)c1 (stereo not given)
GI50 [1]: 33.2 nM | TGI [1]: 3.76 µM | GI50 [2]: 29 nM | TGI [2]: 0.279 µM | GI50 [3]: 0.0417 µM | TGI [3]: 2.42 µM | GI50 [4]: 45.9 nM | TGI [4]: 11 µM | GI50 [5]: 0.0501 µM | TGI [5]: 31.4 µM | GI50 [6]: 0.317 µM | TGI [6]: > 37.8 µM | GI50 [7]: 40.4 nM | TGI [7]: 4.27 µM | GI50 [8]: 0.0745 µM | TGI [8]: 22.6 µM | GI50 [9]: 95.6 nM | TGI [9]: > 36.2 µM | GI50 [10]: 40 nM | TGI [10]: > 100 µM

COc1c(O)c2c3c(c1OC)-c1ccccc1CC3N(S(=O)(=O)c1ccc(C)cc1)CC2 (stereo not given)
GI50 [1]: 1770 nM | TGI [1]: > 50 µM | GI50 [2]: 1180 nM | TGI [2]: 7.46 µM | GI50 [3]: 9.34 µM | TGI [3]: 21 µM | GI50 [4]: 1900 nM | TGI [4]: > 50 µM | GI50 [5]: 7.88 µM | TGI [5]: > 50 µM | GI50 [6]: 4.56 µM | TGI [6]: > 50 µM | GI50 [7]: 1760 nM | TGI [7]: > 50 µM | GI50 [8]: 2.14 µM | TGI [8]: 10.9 µM | GI50 [9]: 1920 nM | TGI [9]: > 50 µM | GI50 [10]: 223 nM | TGI [10]: 7.65 µM

COc1ccc(/C=C\c2cc(OC)c(OC)c(OC)c2)c(NS(=O)(=O)c2ccc(C(C)(C)C)cc2)c1O
GI50 [1]: 345 nM | TGI [1]: 1.83 µM | GI50 [2]: 39 nM | TGI [2]: 2.34 µM | GI50 [3]: 3.51 µM | TGI [3]: 18.6 µM | GI50 [4]: 365 nM | TGI [4]: 13.6 µM | GI50 [5]: 12.5 µM | TGI [5]: 30.4 µM | GI50 [6]: 1.71 µM | TGI [6]: 41.2 µM | GI50 [7]: 580 nM | TGI [7]: 15.2 µM | GI50 [8]: 0.202 µM | TGI [8]: 3.94 µM | GI50 [9]: 440 nM | TGI [9]: > 100 µM | GI50 [10]: 71.4 nM | TGI [10]: > 100 µM

CCCCC[C@@H](C/C=C/CCC(=O)NC/C(=C/Cl)[C@H]1C(=O)C(C)(C)C(=O)[C@@H](C)[C@@]1(C)O)OC
GI50 [1]: 17300 nM | TGI [1]: 32.1 µM | GI50 [2]: 19100 nM | TGI [2]: 40.6 µM | GI50 [3]: 14.5 µM | TGI [3]: 30.9 µM | GI50 [4]: 14000 nM | TGI [4]: 27.4 µM | GI50 [5]: 18.9 µM | TGI [5]: 35.5 µM | GI50 [6]: 17.6 µM | TGI [6]: 34.6 µM | GI50 [7]: 17500 nM | TGI [7]: 32.7 µM | GI50 [8]: 21 µM | TGI [8]: 59.3 µM | GI50 [9]: 18600 nM | TGI [9]: 36.1 µM | GI50 [10]: 21800 nM | TGI [10]: 48.5 µM

COc1cc(N(CCC#N)CCC#N)ccc1/C(N=Nc1ccc(C(=O)O)cc1)=N/NC(=O)c1cc(Br)ccc1O
GI50 [1]: 69.7 µg/mL | TGI [1]: > 150 µg/mL | GI50 [2]: 55.4 µg/mL | TGI [2]: > 150 µg/mL | GI50 [3]: 58.5 µg/mL | TGI [3]: > 150 µg/mL | GI50 [4]: 62.8 µg/mL | TGI [4]: > 150 µg/mL | GI50 [5]: > 150 µg/mL | TGI [5]: > 150 µg/mL | GI50 [6]: 29.9 µg/mL | TGI [6]: 119 µg/mL | GI50 [7]: 50.3 µg/mL | TGI [7]: > 150 µg/mL | GI50 [8]: 67.5 µg/mL | TGI [8]: > 150 µg/mL | GI50 [9]: 50.6 µg/mL | TGI [9]: > 150 µg/mL | GI50 [10]: > 150 µg/mL | TGI [10]: > 150 µg/mL

CCCCCCCCCCCCOC1C(C(CC(=O)N2CCN(Cc3ccc4c(c3)OCO4)CC2)NS(=O)(=O)c2cc(Cl)cc(Cl)c2)OC2OC(C)(C)OC21 (stereo not given)
GI50 [1]: 39300 nM | TGI [1]: > 100 µM | GI50 [2]: 10800 nM | TGI [2]: 78.3 µM | GI50 [3]: 4.82 µM | TGI [3]: 31.1 µM | GI50 [4]: 6690 nM | TGI [4]: 36.7 µM | GI50 [5]: > 93.1 µM | TGI [5]: > 100 µM | GI50 [6]: 12.3 µM | TGI [6]: > 91.5 µM | GI50 [7]: 18100 nM | TGI [7]: > 100 µM | GI50 [8]: 5.03 µM | TGI [8]: > 100 µM | GI50 [9]: 20600 nM | TGI [9]: > 100 µM | GI50 [10]: 14800 nM | TGI [10]: > 100 µM

[Cl-].[Gd+3].[O-]/N=C(\c1ccccc1)c1ccccn1.[O-]/N=C(\c1ccccc1)c1ccccn1.[O-]/N=C(\c1ccccc1)c1ccccn1
GI50 [1]: 48900 nM | TGI [1]: > 100 µM | GI50 [2]: 11700 nM | TGI [2]: > 100 µM | GI50 [3]: 44.9 µM | TGI [3]: > 100 µM | GI50 [4]: 49300 nM | TGI [4]: > 100 µM | GI50 [5]: 95.8 µM | TGI [5]: > 100 µM | GI50 [6]: 55.6 µM | TGI [6]: > 100 µM | GI50 [7]: 37300 nM | TGI [7]: > 100 µM | GI50 [8]: 40.5 µM | TGI [8]: > 100 µM | GI50 [9]: 34300 nM | TGI [9]: > 100 µM | GI50 [10]: 65000 nM | TGI [10]: > 100 µM

O=C(/C=C(\[O-])c1ccccc1)CCCCCCC(=O)/C=C(\[O-])c1ccccc1.O=C(/C=C(\[O-])c1ccccc1)CCCCCCC(=O)/C=C(\[O-])c1ccccc1.O=C(/C=C(\[O-])c1ccccc1)CCCCCCC(=O)/C=C(\[O-])c1ccccc1.[Nd+3].[Nd+3]
GI50 [1]: > 50000 nM | TGI [1]: > 50 µM | GI50 [2]: 3050 nM | TGI [2]: > 50 µM | GI50 [3]: > 50 µM | TGI [3]: > 50 µM | GI50 [4]: > 50000 nM | TGI [4]: > 50 µM | GI50 [5]: > 50 µM | TGI [5]: > 50 µM | GI50 [6]: > 50 µM | TGI [6]: > 50 µM | GI50 [7]: > 50000 nM | TGI [7]: > 50 µM | GI50 [8]: 27.5 µM | TGI [8]: > 50 µM | GI50 [9]: > 50000 nM | TGI [9]: > 50 µM | GI50 [10]: > 50000 nM | TGI [10]: > 50 µM

From PubChem BioAssay (NCI)
